Test results: the NIST ThermoML archive (doi:10.1021/acs.jced.5b01024)
± gives the expanded uncertainty stated by the source.

Test: refractive index (Na D-line) (dimensionless)
Settings: 294.15 K; 100 kPa; Liquid; Standard Abbe refractometry

refractive index	Compound
1.33285 ± 0.00042	O [water]
1.39782 ± 0.00042	CCCCO [butan-1-ol]
1.3846 ± 0.00042	CCCO [propan-1-ol]
